Test results: ChEMBL document CHEMBL1137565, “Discovery of novel 8-azoniabicyclo[3.2.1]octane carbamates as muscarinic acetylcholine receptor antagonists” (Bioorg Med Chem Lett, 2007)

Legend:
[1] = biological target: Muscarinic acetylcholine receptor M3 (Homo sapiens, UniProt P20309); test: Antagonist activity at cloned muscarinic M3 receptor expressed in CHO cells by measuring calcium mobilization; format: functional, cell-based
[2] = biological target: Muscarinic acetylcholine receptor M1 and M3 (Homo sapiens) (UniProt P20309+P11229); test: Selectivity for cloned muscarinic M3 receptor over cloned muscarinic M1 receptor
Mus musculus [3] = species: Mus musculus; test: Effect on metacholine-induced bronchoconstriction in mouse assessed as bronchoprotection at 5 ug after 5 hrs; format: functional
[4] = biological target: T1, Muscarinic acetylcholine receptor M2 (Homo sapiens, UniProt P08172); test: Antagonist activity at cloned muscarinic M2 receptor expressed in CHO cells by measuring calcium mobilization; format: functional, cell-based
T1 sequence (P08172 whole entry): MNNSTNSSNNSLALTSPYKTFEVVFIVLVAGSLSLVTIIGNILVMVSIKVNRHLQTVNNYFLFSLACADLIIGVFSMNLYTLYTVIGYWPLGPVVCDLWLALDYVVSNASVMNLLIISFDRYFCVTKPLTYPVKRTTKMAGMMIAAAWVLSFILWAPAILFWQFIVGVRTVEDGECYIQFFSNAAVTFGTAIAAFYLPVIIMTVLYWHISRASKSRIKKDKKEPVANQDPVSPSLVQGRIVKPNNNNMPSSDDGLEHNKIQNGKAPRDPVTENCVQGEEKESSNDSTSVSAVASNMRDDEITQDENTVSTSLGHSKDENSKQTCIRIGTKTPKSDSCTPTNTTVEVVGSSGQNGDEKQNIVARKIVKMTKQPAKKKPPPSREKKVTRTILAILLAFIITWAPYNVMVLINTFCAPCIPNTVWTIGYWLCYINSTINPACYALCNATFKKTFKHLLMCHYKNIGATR

[5] = biological target: Muscarinic acetylcholine receptors; M2 & M3 (Homo sapiens) (UniProt P20309+P08172); test: Selectivity for cloned muscarinic M3 receptor over cloned muscarinic M2 receptor
[6] = biological target: T2, Muscarinic acetylcholine receptor M1 (Homo sapiens, UniProt P11229); test: Antagonist activity at cloned muscarinic M1 receptor expressed in CHO cells by measuring calcium mobilization; format: functional, cell-based
T2 sequence (P11229 whole entry): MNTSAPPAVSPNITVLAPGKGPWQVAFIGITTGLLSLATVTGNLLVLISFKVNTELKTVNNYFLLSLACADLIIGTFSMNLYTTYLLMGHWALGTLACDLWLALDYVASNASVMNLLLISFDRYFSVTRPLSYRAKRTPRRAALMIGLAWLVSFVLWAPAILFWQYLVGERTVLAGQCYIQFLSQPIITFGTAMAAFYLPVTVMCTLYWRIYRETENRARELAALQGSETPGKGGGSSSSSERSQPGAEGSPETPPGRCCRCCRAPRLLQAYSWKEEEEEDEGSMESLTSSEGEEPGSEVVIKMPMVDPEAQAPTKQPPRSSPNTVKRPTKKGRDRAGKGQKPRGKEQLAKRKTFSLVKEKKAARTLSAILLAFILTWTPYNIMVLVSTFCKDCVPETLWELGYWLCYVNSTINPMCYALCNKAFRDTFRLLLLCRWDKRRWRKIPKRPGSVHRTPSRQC

Mus musculus [7] = species: Mus musculus; test: Effect on metacholine-induced bronchoconstriction in mouse assessed as bronchoprotection at 5 ug after 15 mins; format: functional
Mus musculus [8] = species: Mus musculus; test: Effect on metacholine-induced bronchoconstriction in mouse assessed as bronchoprotection at 5 ug after 24 hrs; format: functional

Muscarinic acetylcholine receptor M1 and M3 (Homo sapiens), sequence (P20309 whole entry, looked up, one chain of several): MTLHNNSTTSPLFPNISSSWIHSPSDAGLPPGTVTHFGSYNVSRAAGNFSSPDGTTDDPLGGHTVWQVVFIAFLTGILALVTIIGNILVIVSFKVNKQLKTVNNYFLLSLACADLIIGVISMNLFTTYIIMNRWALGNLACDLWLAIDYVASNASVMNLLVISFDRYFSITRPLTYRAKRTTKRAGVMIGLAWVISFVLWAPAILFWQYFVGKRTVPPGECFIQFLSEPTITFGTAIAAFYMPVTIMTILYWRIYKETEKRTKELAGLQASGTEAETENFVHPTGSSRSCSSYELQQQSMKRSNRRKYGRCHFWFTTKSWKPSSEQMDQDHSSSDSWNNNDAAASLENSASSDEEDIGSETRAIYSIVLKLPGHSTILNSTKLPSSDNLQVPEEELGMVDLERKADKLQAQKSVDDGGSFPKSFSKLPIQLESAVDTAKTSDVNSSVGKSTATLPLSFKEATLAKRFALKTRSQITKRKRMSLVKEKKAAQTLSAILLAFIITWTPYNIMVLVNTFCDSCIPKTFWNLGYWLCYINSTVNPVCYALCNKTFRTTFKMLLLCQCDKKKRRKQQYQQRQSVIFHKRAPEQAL
Muscarinic acetylcholine receptor M3, sequence (P20309 whole entry): as the sequence (P20309 whole entry, looked up, one chain of several) above

## C[N+]1(C)[C@@H]2CC[C@H]1C[C@H](OC(=O)N(Cc1ccccc1)c1ccsc1)C2.[Br-]
[1]
  IC50: 2 nM
[2]
  Ratio IC50: 1
Mus musculus [3]
  Activity: 80%
[4]
  IC50: 10.9 nM
[5]
  Ratio IC50: 5.5
[6]
  IC50: 2.1 nM
Mus musculus [7]
  Activity: 85%
Mus musculus [8]
  Activity: 25%
